Results: patent US5399565A, “Pyrazolidinone CCK and gastrin antagonists and pharmaceutical formulations therof” (priority 1993, dated 1995)

Tests used:
brain CCK receptor = biological target: T1, brain CCK receptor (Mus musculus, UniProt P56481); assay: CCK receptor binding, mouse brain membranes (125I-CCK-8 sulfate); settings: for IC50: mouse brain membranes, read-out: Brain IC50; for inhibition at 10 µM / inhibition at 1 µM: read-out: Brain Percent Inhibition
T1 construct: from tissue; host or cells: forebrain membranes of male CF-1 mice
T1 sequence (P56481 1-453): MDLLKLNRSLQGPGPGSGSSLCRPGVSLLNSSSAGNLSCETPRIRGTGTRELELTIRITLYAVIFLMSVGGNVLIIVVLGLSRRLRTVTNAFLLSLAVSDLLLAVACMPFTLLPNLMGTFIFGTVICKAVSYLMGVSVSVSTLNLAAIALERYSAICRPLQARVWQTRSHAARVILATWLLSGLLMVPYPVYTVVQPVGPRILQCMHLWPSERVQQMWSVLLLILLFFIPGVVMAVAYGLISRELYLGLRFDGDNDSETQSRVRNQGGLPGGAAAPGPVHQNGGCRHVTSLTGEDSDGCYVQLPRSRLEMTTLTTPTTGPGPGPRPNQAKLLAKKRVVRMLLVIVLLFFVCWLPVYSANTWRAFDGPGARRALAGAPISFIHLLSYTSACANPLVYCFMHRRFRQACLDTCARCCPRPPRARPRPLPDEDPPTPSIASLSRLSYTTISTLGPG

[1] = biological target: T2, peripheral type CCK receptors in rat pancreas (Rattus norvegicus, UniProt P30551); assay: Binding to peripheral type CCK receptors in rat pancreas (3H-L-364,718); settings: for inhibition at 10 µM: read-out: Pancreas Percent Inhibition; for IC50: rat pancreas
T2 construct: Pancreas was obtained from male Sprague-Dawley rats; from tissue; host or cells: pancreas membranes of male Sprague-Dawley rats
T2 sequence (P30551 1-444): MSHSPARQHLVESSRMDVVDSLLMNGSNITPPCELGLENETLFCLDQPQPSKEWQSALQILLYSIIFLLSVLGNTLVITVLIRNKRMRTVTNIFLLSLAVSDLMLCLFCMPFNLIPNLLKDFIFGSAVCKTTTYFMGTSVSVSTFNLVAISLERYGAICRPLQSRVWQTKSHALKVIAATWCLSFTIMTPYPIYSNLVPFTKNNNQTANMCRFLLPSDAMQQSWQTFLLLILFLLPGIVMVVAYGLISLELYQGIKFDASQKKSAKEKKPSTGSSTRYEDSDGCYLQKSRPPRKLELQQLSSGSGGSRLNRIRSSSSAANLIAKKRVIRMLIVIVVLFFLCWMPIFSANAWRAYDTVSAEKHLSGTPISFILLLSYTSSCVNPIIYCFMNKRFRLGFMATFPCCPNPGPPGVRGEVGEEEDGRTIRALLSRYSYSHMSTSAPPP
Procedure, shortened: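 Washed pancreatic membranes from male Sprague-Dawley rats (150-200 g) incubated 1 h at room temperature with 0.4-0.6 nM ³H-L-364,718 in 50 mM Tris pH 7.4, 5 mM MgCl2, bacitracin, 5 mM DTT. Bound radioactivity counted after filtration; nonspecific binding defined with 100 nM L-364,718; IC50 determined.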

gastrin receptor = biological target: T3, gastrin receptor (Cavia porcellus, UniProt H0VZC5); assay: Gastrin binding to guinea pig stomach mucosal membranes (125I-gastrin I); settings: guinea pig stomach mucosal membranes; read-out: Gastrin IC50
T3 construct: Guinea pig stomach fundus was obtained from male Hartley guinea pigs; from tissue; host or cells: stomach fundus mucosal membranes of male Hartley guinea pigs
T3 sequence (H0VZC5 1-426): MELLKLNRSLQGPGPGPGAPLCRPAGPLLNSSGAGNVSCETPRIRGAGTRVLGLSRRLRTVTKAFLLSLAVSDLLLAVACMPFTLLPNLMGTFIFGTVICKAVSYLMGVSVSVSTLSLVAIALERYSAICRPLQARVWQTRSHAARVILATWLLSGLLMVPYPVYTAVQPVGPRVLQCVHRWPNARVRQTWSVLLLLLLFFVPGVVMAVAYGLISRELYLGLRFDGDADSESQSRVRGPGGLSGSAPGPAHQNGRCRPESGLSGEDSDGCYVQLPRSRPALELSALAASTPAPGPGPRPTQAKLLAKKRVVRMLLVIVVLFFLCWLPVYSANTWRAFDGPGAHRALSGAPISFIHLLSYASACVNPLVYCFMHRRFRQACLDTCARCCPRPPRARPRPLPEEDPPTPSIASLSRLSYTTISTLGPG
Description: The method used for gastrin binding to guinea pig stomach mucosal membranes was similar to that described by Takeuchi, Speir and Johnson (Am. J. Physiol. 237(3): E284-E294, 1979). Guinea pig stomach fundus was obtained from male Hartley guinea pigs, 300-350 g, and the mucosa was scraped off with a glass slide. The mucosa was homogenized in 50 mM Tris buffer, pH 7.4, containing 1 mM phenylmethanesulfonyl fluoride using a Dounce glass homogenizer, and the suspension was centrifuged at 40,000 g for 10 min. The resulting pellet was resuspended and centrifuged once more, the final pellet was then suspended in 100 ml assay buffer per 1 guinea pig stomach to give a protein concentration of 200-300 μg/200 μl. The assay buffer consisted of 50 mM Tris buffer, pH 7.4, 5 mM MgCl2, 0.14 mg/ml bacitracin, and 1 μg/ml each of leupeptin, chymostatin, aprotinin and pepstatin. Reagent volumes for the assay were the same as those used for CCK binding to brain membranes. The radioactive ligand was 20 pM ^125 I-gastrin I, from DuPont NEN (NEX-176). The samples were incubated 3 hours at room temperature and filtered and counted as described for CCK binding to brain membranes. Compound samples were prepared and IC-50 values were determined as described for the CCK-brain receptor binding. Non-specific binding was determined using 100 nM gastrin I (human synthetic from Sigma Chemical Co.).

Compound	IC50 (brain CCK receptor) [nM]	inhibition at 10 µM [1] [%]	IC50 (gastrin receptor) [nM]	IC50 [1] [nM]	inhibition at 10 µM (brain CCK receptor) [%]	inhibition at 1 µM (brain CCK receptor) [%]
COc1cccc(C2C(=O)NN(C(=O)Nc3ccc(Br)cc3)C2c2ccccc2)c1 (centres unmarked) [Example 123]	68	23	690			
O=C1NN(C(=O)Nc2ccc(Br)cc2)[C@@H](c2cccc(Cl)c2Cl)[C@@H]1c1ccccc1 (relative stereo) [Example 116]	31	80	230			
O=C1NN(C(=O)Nc2ccc(Cl)c(Cl)c2)[C@H](c2ccccc2)[C@H]1c1ccccc1 (relative stereo) [Example 46]	42		210	1200		
O=C1NN(C(=O)Nc2ccc(Br)cc2)C(c2ccccc2)C1c1ccc(Cl)cc1 (centres unmarked) [Example 129]	160	69	860			
O=C1NN(C(=O)Nc2ccc(Br)cc2)[C@@H](c2ccccc2)[C@@H]1c1ccccc1 (relative stereo) [Example 20]	31		490	11600		
O=C1NN(C(=O)Nc2ccc(Cl)c(C(F)(F)F)c2)C(c2ccccc2)C1c1ccccc1Cl (centres unmarked) [Example 131]	12	61	62			
NC(=O)c1cccc(C2C(c3ccccc3)C(=O)NN2C(=O)Nc2ccc(Br)cc2)c1 (centres unmarked) [Example 118]	360	41	5200			
O=C1NN(C(=O)Nc2ccc3c(c2)CCC3)[C@H](c2ccccc2)[C@H]1c1ccccc1 (relative stereo) [Example 49]	43	40	250			
CSc1ccc(NC(=O)N2NC(=O)[C@@H](c3ccccc3)[C@@H]2c2ccccc2)cc1 (relative stereo) [Example 38]	56	53	240			
CCOc1ccc(NC(=O)N2NC(=O)[C@@H](c3ccccc3)[C@@H]2c2ccccc2)cc1 (relative stereo) [Example 34]	1500	12				
O=C1NN(C(=O)Nc2ccc(Br)c(C(F)(F)F)c2)[C@H](c2ccccc2)[C@H]1c1ccccc1 (relative stereo) [Example 45]	22			160		
O=C1NN(C(=O)Nc2ccc(Cl)c([N+](=O)[O-])c2)[C@H](c2ccccc2)[C@H]1c1ccccc1 (relative stereo) [Example 48]	80	98				
O=C1NN(c2nc3ccc(Br)cc3s2)[C@@H](c2ccccc2)[C@@H]1c1ccccc1 (relative stereo) [Example 85]		19			78	
CN(C(=O)N1NC(=O)[C@@H](c2ccccc2)[C@@H]1c1ccccc1)c1ccc(Cl)cc1 (relative stereo) [Example 19]		36			68	
COc1ccc(C2C(=O)NN(C(=O)Nc3ccc(Br)cc3)C2c2ccccc2)cc1 (centres unmarked) [Example 128]	490	39				
CC(C)Oc1ccc(NC(=O)N2NC(=O)[C@@H](c3ccccc3)[C@@H]2c2ccccc2)cc1 (relative stereo) [Example 35]	390	48				
O=C1NN(C(=O)NCCCc2ccccc2)[C@@H](c2ccccc2)[C@@H]1c1ccccc1 (relative stereo) [Example 108]	1300	87				

Compound	IC50 (brain CCK receptor) [nM]	inhibition at 10 µM [1] [%]	IC50 (gastrin receptor) [nM]	IC50 [1] [nM]	inhibition at 10 µM (brain CCK receptor) [%]	inhibition at 1 µM (brain CCK receptor) [%]
O=C1NN(C(=O)Nc2cccc(C(F)(F)F)c2)[C@@H](c2ccccc2)[C@@H]1c1ccccc1 (relative stereo) [Example 39]	330	52				
O=C1NN(C(=O)Nc2ccc([N+](=O)[O-])cc2)[C@@H](c2ccccc2)[C@@H]1c1ccccc1 (relative stereo) [Example 24]	150	45				
O=C1NN(C(=O)Nc2cccc(OCc3ccccc3)c2)[C@H](c2ccccc2)[C@H]1c1ccccc1 (relative stereo) [Example 44]	260	67				
O=C1NN(C(=O)Nc2ccc(Br)cc2)C(c2ccc([N+](=O)[O-])cc2)C1c1ccccc1 (centres unmarked) [Example 119]	1200	64				
O=C1NN(C(=O)Nc2ccc(Cl)cc2Cl)[C@H](c2ccccc2)[C@H]1c1ccccc1 (relative stereo) [Example 55]	600	47				
CC(C)C1C(c2ccccc2)C(=O)NN1C(=O)Nc1ccc(Br)cc1 (centres unmarked) [Example 73]		20			16	
CC(NC(=O)N1NC(=O)[C@@H](c2ccccc2)[C@@H]1c1ccccc1)c1ccc(Br)cc1 (relative stereo) [Example 103]	870	78				
O=C1NN(c2nc3ccccc3s2)[C@@H](c2ccccc2)[C@@H]1c1ccccc1 (relative stereo) [Example 84]		26			70	
O=C1NN(C(=O)c2ccc(Cl)c(Cl)c2)[C@H](c2ccccc2)[C@H]1c1ccccc1 (relative stereo) [Example 75]		40			60	
CC(=O)c1ccc(NC(=O)N2NC(=O)[C@@H](c3ccccc3)[C@@H]2c2ccccc2)cc1 (relative stereo) [Example 23]	490	23				
O=C(Nc1ccc(C(F)(F)F)cc1)N1N[C@@H](c2ccccc2)[C@H](c2ccccc2)C1=O (relative stereo) [Example 83]		12				37
O=C1NN(C(=O)NC2CCCCC2)[C@@H](c2ccccc2)[C@@H]1c1ccccc1 (relative stereo) [Example 95]		18			55	
O=C1NN(C(=O)Nc2ccc(Br)cc2)C(Cc2ccccc2)C1c1ccccc1 (centres unmarked) [Example 72]		22			88	
COc1ccc(NC(=O)N2NC(=O)[C@H](c3ccccc3)[C@H]2c2ccccc2)cc1OC (relative stereo) [Example 51]		25				18
O=C1NN(C(=O)Nc2cccnc2)[C@@H](c2ccccc2)[C@@H]1c1ccccc1 (relative stereo) [Example 88]		37			40	
O=C1NN(C(=O)NCc2ccccc2Cl)[C@@H](c2ccccc2)[C@@H]1c1ccccc1 (relative stereo) [Example 98]		33			74	
O=C1NN(C(=O)Nc2ccc(OCCc3ccccc3)cc2)[C@@H](c2ccccc2)[C@@H]1c1ccccc1 (relative stereo) [Example 36]	450	33				
